Laboratory results: ChEMBL document CHEMBL1130915, “Kampanols: novel Ras farnesyl-protein transferase inhibitors from Stachybotrys kampalensis” (Bioorg Med Chem Lett, 1998)
pIC50: −log10 of the molar value.

Key:
[1] = target: Protein farnesyltransferase (Homo sapiens, UniProt P49354+P49356); test: Inhibition of human recombinant farnesyltransferase; type: protein-complex assay
[2] = Inhibition of Geranylgeranyl transferase type I

| SMILES | pIC50 [1] | pIC50 [2] |
| --- | --- | --- |
| CC(=O)O[C@H]1CC[C@]2(C)[C@H]3Cc4c(O)cc(CO)c(CO)c4O[C@@]3(C)CC[C@H]2C1(C)C | 3.34 | < 4.00 |
| COC1OC(OC)c2c1cc(O)c1c2O[C@@]2(C)CC[C@H]3C(C)(C)[C@@H](OC(C)=O)CC[C@]3(C)[C@H]2C1 (stereo partly drawn) | 5.15 | < 4.00 |
| CC(=O)O[C@H]1CC[C@]2(C)[C@H]3Cc4c(O)cc(C=O)c(C=O)c4O[C@@]3(C)CC[C@H]2C1(C)C | 3.25 | < 4.00 |
| CC(=O)O[C@H]1CC[C@]2(C)[C@H]3Cc4c(O)cc5c(c4O[C@@]3(C)CC[C@H]2C1(C)C)COC5=O [KAMPANOL A] | 4.89 | < 4.00 |
